The values below come from patent US4210636A, “Antisecretory polypeptides” (American Home Products Corporation, priority 1978, dated 1980).

Bridge positions count the residues as written; N and C are the ends. Square brackets hold non-standard residues; d marks the D form. Peptide text beside a SMILES is read from it. Mpa = O=C(O)CCS A value given as a limit tells only on which side of the number the result lay.

One assay has as its system growth hormone secretion. Briefly: In vivo growth hormone secretion test. From the text:
(§1) The potency of each compound is reported at the end of each example illustrating its production. […] In addition, the maximum dose employed to evaluate control of growth hormone, insulin and glucagon secretion is reported.

For another assay, the system named is insulin secretion. Briefly: In vivo insulin secretion test.
Excerpt: as §1

A further assay relates to glucagon secretion. Nature of the assay: In vivo glucagon secretion test.
Excerpt: as §1

A further assay deals with gastric acid secretion. The conditions noted are these: dose as high as 2 μm/Kg, s.c.; cited from earlier work.
Assay [1] concerns gastric secretion (total gastric volume, hydrogen ion secretion, hydrogen ion concentration). Briefly: Anti-secretory activity in pylorus-ligated (Shay) rat, s.c. Format: in vivo. Particulars: for hydrogen ion secretion / total gastric volume: at the reported potency dose (IV 26.3 mg/kg; V and VI 4.40 mg/kg); for Antisecretory potency: lowest dose administered at which two of the three parameters (total gastric volume, hydrogen ion secretion, hydrogen ion concentration) were significantly decreased: pylorus-ligated male Charles River rats, 4 hours after ligation. The method, then: Each of the polypeptides of this invention was tested and found active parenterally (s.c.) in the scientifically recognized, standard test for anti-secretory activity which involves the following procedure in which male Charles River rats weighing 190-260 grams are deprived of food but not water for eighteen hours prior to use. Water is withheld during the actual experiment. The rats are weighed, anesthetized with ether and the pylorus is ligated according to the method of Shay et al., Gastroenterology, 26, 906-913 (1954). Treatment or vehicle control is then administered subcutaneously (s.c.). The rats are housed two per cage and sacrificed with CO2 four hours after ligation. The stomachs are removed, rinsed, and contents emptied into a graduated centrifuge tube. The tubes are centrifuged for twenty minutes at two thousand revolutions per minute and the volume of gastric juice is recorded. Any sample which is obviously contaminated with feces, food or blood is eliminated. An aliquot of each sample is frozen for later analysis of pepsin. The pH is measured and one milliliter of gastric juice is titrated with 0.1 N NaOH to a pH of 7.0-7.4. The data are analyzed by analysis of variance and, using the pooled error variance, t-comparisons are made between the groups.
as §1

Regarding `C[C@H](N)C(=O)NCC(=O)N[C@H]1CSSC[C@@H](C(=O)O)NC(=O)[C@H](CO)NC(=O)[C@H]([C@@H](C)O)NC(=O)[C@H](Cc2ccccc2)NC(=O)[C@H]([C@@H](C)O)NC(=O)[C@H](CCCCN)NC(=O)[C@H](Cc2c[nH]c3ccccc23)NC(=O)[C@H](Cc2ccccc2)NC(=O)[C@H](Cc2ccccc2)NC(=O)[C@H](CC(N)=O)NC(=O)[C@H](CCCCN)NC1=O` [Somatostatin, reference compound], in the assay with growth hormone secretion (reference), the “Dose that effectively inhibits secretion of growth hormone” value was “about 10 micrograms per kilogram”. For the same compound, the “Dose that effectively inhibits secretion of insulin” value in the assay on insulin secretion (reference) was “about 10 micrograms per kilogram”. Further, the “Dose that effectively inhibits secretion of glucagon” value in the assay with glucagon secretion (reference) was “about 10 micrograms per kilogram”.
Regarding D-Lys^9 -SRIF, the “effect on gastric acid secretion” value in the assay on gastric acid secretion is recorded as “no appreciable effect”.
For `C[C@@H]1NC(=O)[C@H](CCCCN)NC(=O)[C@@H](N)CSSC[C@@H](C(=O)O)NC(=O)[C@H](CO)NC(=O)[C@H]([C@@H](C)O)NC(=O)[C@H](Cc2ccccc2)NC(=O)[C@H]([C@@H](C)O)NC(=O)[C@H](CCCCN)NC(=O)[C@H](Cc2c[nH]c3ccccc23)NC(=O)[C@H](Cc2ccccc2)NC(=O)[C@H](CO)NC1=O` [IV, L-Cysteinyl-L-lysyl-L alanyl-L-seryl-L-phenylalanyl-L-tryptophyl-L-lysyl-L-threonyl-L-phenylalanyl-L-threonyl-L-seryl-L-cysteine cyclic (1→12) disulfide] (H-CKASFWKTFTSC-OH; disulfide 1-12), in assay [1] (pylorus-ligated rat), the hydrogen ion secretion result is on record as “significantly reduced” and the total gastric volume entry is “significantly reduced”. Further, in assay [1], the “Antisecretory potency: lowest dose administered at which two of the three parameters (total gastric volume, hydrogen ion secretion, hydrogen ion concentration) were significantly decreased” value was 26.3 mg/kg. Further, the “Growth hormone secretion not inhibited at highest dose tested” value (“Growth hormone secretion not inhibited” for short) in the assay with growth hormone secretion was above 3.10 mg/kg. In addition, the “Insulin secretion not inhibited at highest dose tested” value (“Insulin secretion not inhibited” for short) in the assay with insulin secretion is on record as above 3.10 mg/kg. Besides, the “Glucagon secretion not inhibited at highest dose tested” value (from here on “Glucagon secretion not inhibited”) in the assay on glucagon secretion is reported as above 3.10 mg/kg.
As to `CSCC[C@@H]1NC(=O)[C@H](Cc2ccccc2)NC(=O)[C@H](CC(N)=O)NC(=O)[C@H](CCCCN)NC(=O)[C@@H](NC(=O)CNC(=O)[C@H](C)N)CSSC[C@@H](C(=O)O)NC(=O)[C@H](CO)NC(=O)[C@H]([C@@H](C)O)NC(=O)[C@H](Cc2ccccc2)NC(=O)[C@H]([C@@H](C)O)NC(=O)[C@H](CCCCN)NC(=O)[C@H](Cc2c[nH]c3ccccc23)NC1=O` [VI, L-Alanyl-glycyl-L-cysteinyl-L-lysyl-L-asparaginyl-L-phenylalanyl-L-methionyl-L-tryptophyl-L-lysyl-L-threonyl-L-phenylalanyl-L-threonyl-L-seryl-L-cystein cyclic (3→14) disulfide] (H-AGCKNFMWKTFTSC-OH; disulfide 3-14), the “pH (gastric juice)” value in assay [1] (at 4.40 mg/kg, pylorus-ligated rat) is reported as “significantly reduced”. Besides, in assay [1] (pylorus-ligated rat), the hydrogen ion secretion result is “significantly reduced” and the total gastric volume result is recorded as “significantly reduced”. In addition, the “Antisecretory potency: lowest dose administered at which two of the three parameters (total gastric volume, hydrogen ion secretion, hydrogen ion concentration) were significantly decreased” value in assay [1] is 4.40 mg/kg. Besides, the “Growth hormone secretion not inhibited” value in the assay on growth hormone secretion is listed as above 1.0 mg/kg. Also, the “Insulin secretion not inhibited” value in the assay on insulin secretion is above 1.0 mg/kg. Moreover, the “Glucagon secretion not inhibited” value in the assay with glucagon secretion is listed as above 1.0 mg/kg.
For `C[C@@H](O)[C@@H]1NC(=O)[C@H](Cc2ccccc2)NC(=O)[C@H]([C@@H](C)O)NC(=O)[C@H](CCCCN)NC(=O)[C@H](Cc2c[nH]c3ccccc23)NC(=O)[C@H](Cc2ccccc2)NC(=O)[C@H](Cc2ccccc2)NC(=O)[C@H](CC(N)=O)NC(=O)CCSSC[C@@H](C(=O)O)NC(=O)[C@H](CO)NC1=O` [V, β-Mercaptopropionyl-L-asparaginyl-L-phenylalanyl-L-phenylalanyl-L-tryptophyl-L-lysyl-L-threonyl-L-phenylalanyl-L-threonyl-L-seryl-L-cysteine cyclic (1→11) disulfide] ([Mpa]NFFWKTFTSC-OH; disulfide 1-11), in assay [1] (pylorus-ligated rat), the hydrogen ion secretion entry was “significantly reduced” and the total gastric volume result is “significantly reduced”. The “Antisecretory potency: lowest dose administered at which two of the three parameters (total gastric volume, hydrogen ion secretion, hydrogen ion concentration) were significantly decreased” value in assay [1] was determined as 4.40 mg/kg. For the same compound, in the assay with growth hormone secretion, the “Growth hormone secretion not inhibited” value is above 1.90 mg/kg. Further, the “Insulin secretion not inhibited” value in the assay on insulin secretion was above 1.90 mg/kg. Further, the “Glucagon secretion not inhibited” value in the assay on glucagon secretion is listed as above 1.90 mg/kg.
